Literature values, collected in paper PMC10017685 (Nature Communications, 2023).
Like-named read-outs stand apart in the source and are kept apart here.

System: human erythrocytes
Parameters: method as in DBAASP
Conditions: cited from earlier work
[1] = toxicity class label 1 or 0, meaning of the labels not given, DBAASP HC50 data, human erythrocytes, ref DBAASP

Sequence	Class (dedicated toxicity dataset used for toxicity classifier evaluation) [1]	Class (dedicated toxicity dataset used for toxicity classifier evaluation)
FLPIVTNLLSGLL [DBAASP_2205]	0	–
FLPKILKVAAK [DBAASP_16465]	0	–
FLPKWALKWAAK [DBAASP_16468]	0	–
FLPLIAGVAANFLPKIFCLISKKC [DBAASP_6168]	1	–
FLPLIAGVAASILPKIFCFITKKC [DBAASP_6170]	1	–
FLPLIASLAANFVPKIFCKITKKC [DBAASP_3563]	0	–
FLPLIASVAANLVPKIFCKITKKC [DBAASP_3564]	0	–
FLPLILPSIVTALSSFLKQG [DBAASP_8197]	0	–
FLPLKKLRFGLL [DBAASP_5722]	0	–
FLPLLASLFSRLF [DBAASP_4935]	1	–
FLPLLLAGLPKLLCLFFKKC [DBAASP_1470]	1	–
FLPLVTMLLGKLF [DBAASP_3105]	1	–
FLPMLAGLAANFLPKIVCKITKKC [DBAASP_1892]	1	–
FLPVIASVAAKVLPKVFCFITKKC [DBAASP_6169]	1	–
FLQGIIDTVGKWL [DBAASP_18165]	0	–
FLQGIWDTVGKWL [DBAASP_18166]	0	–
FLQHIIGALGHLF [DBAASP_10244]	0	–
FLQHIIGALSHFF [DBAASP_10247]	0	–
FLQHIIGALTHIF [DBAASP_10246]	0	–
FLRFAGSVIHGAGHLVHHIGVAL [DBAASP_11350]	0	–
FLRFIGSVIHGIGHLVHHIGVAL [DBAASP_4193]	0	–
FLSAITSILGKFF [DBAASP_13350]	0	–
FLSAITSLLGKLL [DBAASP_4212]	0	–
FLSALWGVAKSLF [DBAASP_18190]	0	–
FLSGIVGMLGKLF [DBAASP_2204]	1	–

Sequence	Class (dedicated toxicity dataset used for toxicity classifier evaluation) [1]	Class (dedicated toxicity dataset used for toxicity classifier evaluation)
FLSIIAKVLGSLF [DBAASP_3104]	1	–
FLSKIWDGVKSLL [DBAASP_18168]	0	–
FLSLALAALPKFLCLVFKKC [DBAASP_1468]	1	–
FLSLIPAAISAVSALANHF [DBAASP_10851]	0	–
FLSLIPHIASGIASLVKNF [DBAASP_12390]	1	–
FLSLIPHIVSGVAALANHL [DBAASP_12391]	0	–
FLSLIPHIVSGVASIAKHF [DBAASP_3889]	0	–
FLSLIPKAISAISALANHF [DBAASP_12627]	0	–
FLSLIPKAISAISALINHF [DBAASP_12628]	1	–
FLSLIPKAISAVSALANHF [DBAASP_12626]	0	–
FLSLIPKIAGGIAALAKHL [DBAASP_10835]	1	–
FLSLIPKIATGIAALAKHL [DBAASP_10833]	1	–
FLSLIPKIISAISALIKHF [DBAASP_12630]	1	–
FLSLIPKIISAISALINHF [DBAASP_12629]	1	–
FLSLLPHIASGIASLVSKF [DBAASP_12382]	1	–
FLSSIGKILGNLL [DBAASP_3103]	0	–
FLSTALKVAANVVPTLFCKITKKC [DBAASP_1888]	0	–
FLSTLLNVASKVVPTLFCKITKKC [DBAASP_1891]	0	–
FLSTLLNVASNVVPTLICKITKKC [DBAASP_1890]	1	–
FLWALFKVASK [DBAASP_646]	0	–
FPFLLSLIPSAISALKKL [DBAASP_18191]	0	–
FPLTWLKWWKWKK [DBAASP_17184]	0	–
FPVTFRFFKFFKG [DBAASP_9715]	0	–
FPVTWGWWKWWKG [DBAASP_9714]	0	–
FPVTWKWWKWWKG [DBAASP_7114]	0	–

Sequence	Class (dedicated toxicity dataset used for toxicity classifier evaluation) [1]	Class (dedicated toxicity dataset used for toxicity classifier evaluation)
FPVTWPTKWLKG [DBAASP_9721]	0	–
FPVTWPTKWRKG [DBAASP_9717]	0	–
FPVTWPTKWWEG [DBAASP_9720]	0	–
FPVTWPTKWWKG [DBAASP_7115]	0	–
FPVTWPTKWWKS [DBAASP_9716]	0	–
FPVTWRWWKWWKG [DBAASP_716]	0	–
FVDLKKIANIINSIF [DBAASP_6701]	0	–
FWGALAKGALKLIPSLFSSFSKKD [DBAASP_948]	1	–
FWGFLGKLAMKAVPSLIGGNKK [DBAASP_8440]	0	–
FWGFLGKLAMKAVPSLIGGNKSSSK [DBAASP_8439]	0	–
FWGKLWEGVKNAI [DBAASP_3480]	0	–
FWSTIWNAAKSLI [DBAASP_18164]	1	–
FWSTLLSIGKSLL [DBAASP_18163]	1	–
GFCWRACVYRNGVRVCYRRCN [DBAASP_17226]	–	0
GFGMALKLLKKVL [DBAASP_3442]	0	–
GFGSLLGKALRLGANVL [DBAASP_3772]	0	–
GFKDLLKGAAKALKKTVLF [DBAASP_4908]	0	–
GFKDLLKGAAKALVKAVLF [DBAASP_4918]	1	–
GFKDLLKGAAKALVKTVKF [DBAASP_4910]	0	–
GFKDLLKGAAKALVKTVLF [DBAASP_2302]	0	–
GFKDLLKGAAKALVKTVLK [DBAASP_11235]	0	–
GFKDLLKGAKKALVKTVLF [DBAASP_4907]	0	–
GFKDLLKKAAKALVKTVLF [DBAASP_4906]	1	–
